# Square brackets hold non-standard residues; d marks the D form. Peptide text beside a SMILES is read from it. * marks the point of attachment. Sta = CC(C)C[C@H](N)[C@@H](O)CC(=O)O; Isovaleryl = CC(C)CC(=O)*
# Key:
# mouse pancreatic islets = test: Static incubation of isolated pancreatic islets, insulin secretion; type: cell-based; details: for insulin secretory responses to 20 mM glucose in presence of other protease inhibitors: 100 μM inhibitor; for effect on basal or glucose-stimulated insulin secretion: 100 μM Cathepsin B Inhibitor II, 20 μM Lactacystin
# Procedure: Static incubation of isolated pancreatic islets. Isolation of mouse pancreatic islets was accomplished using collagenase digestion as previously described (Pontoglio et al., 1998). […] Triplicate groups of 5 islets were then incubated in borosilicate tubes containing 1 ml of KRB with the same concentration of inhibitor and various insulin secretagogues for one hour in a moving water bath at 37° C. The reaction was stopped by placing the tubes on ice and an aliquot of the buffer was removed for measurement of insulin levels. Control studies, in which the incubation mixture contained vehicle (0.1% DMSO) only, were performed using aliquots of the same batch of islets
# Assay methods. Insulin concentrations were measured by a double antibody radioimmunoassay using a rat insulin standard. The intra-assay coefficient of variation for this technique is 7%. All samples were assayed in duplicate.
# islets = test: Insulin content of islets after 48 h inhibitor exposure; type: cell-based, mouse; details: 48 hours treatment
# rat soleus muscle strips = test: 2-Deoxyglucose uptake into soleus muscle strips; type: cell-based; details: 100 μM ALLM or 200 μM E-64-d
# Procedure: 2-Deoxyglucose uptake into skeletal muscle and adipose tissue. 2-deoxyglucose (2-DOG) uptake by isolated strips of soleus muscle from normal Wistar rats was measured using a modification of a previously described protocol (Burant et al., 1984). […] Muscles were then extracted and 2-DOG uptake calculated as previously described (Burant et al., 1984).
# rat adipocytes = test: 2-Deoxyglucose uptake into adipocytes; type: cell-based; details: 100 μM ALLM or 200 μM E-64-d
# Procedure: Adipocytes were isolated from epididymal fat pads of 3 month old male Wistar rats as described previously (Robdell, 1964) with the following modification: fat pads were minced to 1-2 mm pieces and incubated for ˜25 min at 37° C. with collagenase I (1 mg/ml, Worthington Biochemicals, Lakewood, N.J.) in KRB containing 10 mM Hepes (pH 7.4), 0.2% BSA and 2 mM sodium pyruvate. The cell suspension was filtered through a nylon mesh (134 μM, Spectrum Lab., Laguna Hills, Calif.) washed three times by floating and allowed to rest for 45 min in the KRB. […] Then another 50 μl of KRB containing 5 mM 2-DOG (final concentration 1 mM), 0.5 μCi of 2-deoxy-[2,6-^3H]glucose was added and cells were incubated for a further 5 min at 25° C. The transport was stopped by adding cytochalasin B (final concentration 50 μM) and cells were spun through 250 μl of dinonyl phthalate oil (Fisher Scientific, Pittsburgh, Pa.). Cells were then transferred to scintillation vials for counting.
# perifused mouse islets = test: Insulin secretion from perifused islets; type: cell-based; details: 4 hr preincubation; 100 μM ALLM, 200 μM E-64-d
# Procedure: Insulin secretion from perifused islets. Insulin secretion from perifused islets was measured using a modification of a previously described protocol (Pontoglio et al., 1998; Sreenan et al., 1998).
# calpain = test: Calpain activity in mouse pancreatic islets (Boc-Leu-Met-CMAC cleavage); type: cell-based
# mouse islets [1] = test: Islet NAD(P)H autofluorescence response; type: cell-based
# Procedure: (§1) Measurement of islet [Ca^2+]i, and NAD(P)H. Islet [Ca^2+]i and NAD(P)H were measured as previously described (Pontoglio et al., 1998; Dukes et al., 1998).
# soleus muscle strips = test: Glycogen synthesis rates in skeletal muscle; type: cell-based, rat; details: 100 μM ALLM or 200 μM E-64-d
# Excerpt: Glycogen synthesis rates in skeletal muscle.
# mouse islets [2] = test: Measurement of islet [Ca2+]i (Fura-2); type: cell-based
# Procedure: as §1
# Insulin secretory responses to glucose and most other secretagogues is mediated by a rise in intracellular free calcium ([Ca^2+]i). We therefore measured [Ca^2+]i responses to glucose, KIC and KCl using Fura-2 as the Ca^2+ indicator. In comparison to the responses from the control islets, the most prominent abnormality in [Ca^2+]i responses to glucose and KIC was a delay of the [Ca^2+]i responses (FIG. 21). The mean time interval between administration of 14 mM glucose and the point of half maximal response (T1/2.) was 120±14 seconds in control islets. […] There was no delay in the appearance of [Ca^2+]i response to KCl, nor was the magnitude of the response reduced.
# mouse islets [3] = test: Glucose utilization and oxidation rates in islets; type: cell-based
# Procedure: Glucose utilization and oxidation rates. Glucose utilization and oxidation rates were measured as previously described (Dukes et al., 1998; Zhou et al., 1996) in mouse islets cultured as described above in the presence or absence of calpain inhibitors.
# isolated β-cells = test: Membrane capacitance recordings (exocytosis) in isolated β-cells; type: cell-based, mouse; details: 4 days culture with inhibitor
# Procedure: Isolation of pancreatic β-cells. Single β-cells were obtained from isolated islets dispersed by gentle trituration (120 strokes through a 200 μl pipette tip) in Ca^2+ and Mg^2+-free PBS containing […]. Cells were plated on glass coverslips and maintained in culture in RPMI containing 11.6 mM glucose for 48-96 hr.
# Capacitance recordings. Capacitance measurements were made with the phase-tracking technique in which a 60 mV peak-to-peak sine wave was superimposed on a holding potential of −80 mV as previously described. Conductance and capacitance values were continuously generated and recorded. The whole-cell capacitance was canceled with the slow capacitance compensation; unbalancing the slow capacitance compensation by 100 fF provided the capacitance calibration signal used to calculate changes in membrane capacitance. The sinusoidal voltage template was interrupted to deliver depolarizations to a cell. Beta cells were stimulated with a train of ten step depolarizations to +20 mV (HP=−80 mV). Each step depolarization lasted 150 ms and was separated by 400 ms interpulse duration. Capacitance measurements were carried out in the perforated whole-cell configuration. The data were collected at a 500 μsec sampling rate and filtered at 5 kHz. Recordings with series resistance >20 MΩ were discarded. Series resistance compensation was applied in all recordings.
# The recording solution for the capacitance measurements contained (in mM): 130 NaCl, 2 glucose, 10 Na-HEPES, 1 MgCl2, 2 KCl, and 5 CaCl2, pH 7.3 with NaOH. The pipette solution contained (in mM): 135 Cs-glutamate, 10 Na-HEPES, 9.5 NaCl, 0.5 TEACl, and 0.5 CaCl2, pH7.3 with CsOH. The pipettes were backfilled with an identical solution to which amphotericin B (final concentration of 0.5 mg/ml) was added and then sonicated. The amphotericin B stock solution (125 mg/ml) was kept frozen at −20° C. and used for one week. ALLM pre-treatment was as described above (see patch-clamp electrophysiology section). All electrophysiological recordings were carried out at room temperature (22-24° C.)
molecule,measurement,setting,value
CC(=O)N[C@@H](CC(C)C)C(=O)N[C@H](C(=O)N[C@H](C=O)CCCCN)C(C)C [Cath B Inhibitor II] (Ac-Leu-Val-Lys-aldehyde),insulin secretory responses to 20 mM glucose in presence of other protease inhibitors,mouse pancreatic islets,not altered
same,effect on basal or glucose-stimulated insulin secretion,mouse pancreatic islets; 48 h,did not significantly affect
"CCOC(=O)[C@H]1O[C@@H]1C(=O)N[C@@H](CC(C)C)C(=O)NCCC(C)C [E-64-d, ethyl (+)-(2S,3S)-3-[(S)-3-Methyl-1-(3-methylbutylcarbamoyl)butyl-carbamoyl]-2-oxiranecarboxylate]",insulin content in islets vs control islets,islets,comparable
same,2-deoxyglucose uptake into soleus muscle strips with insulin,rat soleus muscle strips; insulin 12 nM,0.36±0.02 (mol/ml H20/30 mins
same,2-deoxyglucose uptake into soleus muscle strips without insulin,rat soleus muscle strips; no insulin,0.31±0.02 (mol/ml H20/30 mins
same,2-DOG uptake into adipocytes with insulin,rat adipocytes; insulin 12 nmol/L,749±129 pmol/2×10^5 cells/5 min
same,2-DOG uptake into adipocytes without insulin,rat adipocytes; no insulin,361±29 pmol/2×10^5 cells/5 min
same,enhancement of insulin secretory response to 20 mM glucose in dynamic islet perifusion,perifused mouse islets,also observed
same,area under the curve of rate of generation of fluorescent calpain product,"calpain; 200 μM inhibitor, 4 hr incubation",45±5 % of control values
same,residual calpain activity in intact islets,"calpain; 48 h treatment, 100 μM ALLM or 200 μM E-64-d",55±4 % of control treated islets
same,NAD(P)H response to increase in glucose from 2 to 14 mM,"mouse islets [1]; 100 μM ALLM or E-64-d, 4 hr preincubation",2.8±0.3 fold increase
same,NAD(P)H responses to KIC vs control,mouse islets [1]; 48 h treated islets,significantly reduced
same,NAD(P)H responses to glucose vs control,mouse islets [1]; 48 h treated islets,comparable
same,magnitude of insulin-induced increase in muscle glycogen synthesis,soleus muscle strips; insulin 6 nM,0.31±0.09 nmol glucose/mg/hr
same,rate of muscle glycogen synthesis with insulin,soleus muscle strips; insulin 6 nM,0.80±0.14 nmol glucose/mg/hr
same,rate of muscle glycogen synthesis without insulin,soleus muscle strips; no insulin,0.49±0.08 nmol glucose/mg/hr
same,[Ca2+]i response to high glucose,"mouse islets [2]; 4 hr preincubation, 14 mM glucose",not associated with increases in [Ca^2+]i
same,[Ca2+]i response to glucose ramp (2 to 26 mM over 48 mins),mouse islets [2]; 48 h treated islets,diminished
same,[Ca2+]i responses to 30 mM KCl vs control,mouse islets [2]; 48 h treated islets,not different
same,integrated [Ca2+]i responses (area under the curves) to glucose and KIC vs control,mouse islets [2]; 48 h treated islets,significantly smaller
same,T1/2 of [Ca2+]i response to 14 mM glucose (time to half maximal response),"mouse islets [2]; 48 h treated islets, control 120±14 seconds",4.42 ± 1.08 min
same,T1/2 of [Ca2+]i response to KIC,"mouse islets [2]; 48 h treated islets, control 125±9",5.5 ± 0.12 min
same,rate of glucose utilization at basal glucose,"mouse islets [3]; 2 mM glucose, 100 μM ALLM or 200 μM E-64-d, 4 h",15.5±4 pmol/islet/hr
same,rate of glucose utilization at stimulatory glucose,"mouse islets [3]; 20 mM glucose, 100 μM ALLM or 200 μM E-64-d, 4 h",79.5±9.5 pmol/islet/hr
same,rate of basal glucose utilization and oxidation at 3.3 mM glucose,mouse islets [3]; 48 h treated islets,no significant changes
same,rates of glycolysis and glucose oxidation at stimulating concentrations of glucose,mouse islets [3]; 48 h treated islets vs controls,significantly reduced
same,glucose oxidation rate at basal glucose,"mouse islets [3]; basal glucose, ALLM or E-64-d, 4 h",5.2±0.4 pmol/islet/hr
same,glucose oxidation rate at stimulatory glucose,"mouse islets [3]; stimulatory glucose, ALLM or E-64-d, 4 h",40.0±2.4 pmol/islet/hr
same,rates of exocytosis in β-cells,isolated β-cells,significantly lower rates of exocytosis
same,insulin secretory response to 20 mM glucose after recovery,"mouse pancreatic islets; 48-h treatment, then 2 days recovery without inhibitor",essentially normal insulin secretory response
same,effect on insulin secretion at 2 mM glucose,"mouse pancreatic islets; 4 hr exposure, ALLM 250 μM, E-64-d 200 μM, 2 mM glucose",not observed
same,basal insulin secretion (2 mM glucose) vs control-treated islets,mouse pancreatic islets; 48 hours exposure,no significant difference
same,insulin secretory response to 30 mM KCl,mouse pancreatic islets; 48 h treated islets,significantly reduced
same,insulin secretory response to carbachol,mouse pancreatic islets; 48 h treated islets,attenuated
same,insulin secretory response to glyceraldehyde,mouse pancreatic islets; 48 h treated islets,responded normally
same,insulin secretory response to mastoparan,mouse pancreatic islets; 48 h treated islets,attenuated
same,insulin-secretory response to keto-isocaproic acid (KIC),mouse pancreatic islets; 48 h treated islets,decreased
same,insulin secretory responses to glucose (summary statement of Example 8),"mouse pancreatic islets; isolated mouse islets, introductory summary, no conditions given",increase in glucose induced insulin secretion
CC(=O)N[C@@H](CSC(=O)[C@]1([C@@H](O)C(C)C)NC(=O)[C@H](C)[C@@H]1O)C(=O)O [Lactacystin],effect on basal or glucose-stimulated insulin secretion,mouse pancreatic islets; 48 h,did not significantly affect
CC(C)CC(=O)N[C@H](C(=O)N[C@H](C(=O)N[C@@H](CC(C)C)[C@@H](O)CC(=O)N[C@@H](C)C(=O)N[C@@H](CC(C)C)[C@@H](O)CC(=O)O)C(C)C)C(C)C [pepstatin A] (Isovaleryl-VV[Sta]A[Sta]-OH),insulin secretory responses to 20 mM glucose in presence of other protease inhibitors,mouse pancreatic islets,not altered
MDL28170,inhibition of 20 mM glucose-stimulated insulin secretion,"mouse pancreatic islets; 48 h, 100 μM ALLM (so in the source), 50 μM MDL28170",approximately 60%
